# Measured values taken from patent US20080207632A1, “PROTEIN KINASE INHIBITORS” (SUPERGEN, INC., priority 2006, published 2008).
# Where two headings read alike, the source gives them in different places.
# Tests used:
# Type in all cases: cell-based
# PC-3 (prostate) = assay: in vitro cytotoxicity assay (Cell-Titer-Glo), PC-3
# Method: (§1) Briefly, tumor cell lines used were purchased from the American Type Culture Collection, and are identified as follows: Panc-1 (pancreas), MiaPaCa-2 (pancreas), MCF-7 (breast), HT-29 (colon), U2-OS (osteosarcoma), OVCAR-3 (ovary), HepG2 (hepatocellular carcinoma) and TT (medullary thyroid), PC-3 (prostate) and A549 (lung). The assay utilized the Cell-Titer-Glo Non-Radioactive Cell Proliferation Assay (Promega Corp., Madison, Wis.). First the cells were cultured in RPMI 1640 medium (Cat# 21870-076, Invitrogen Corporation) supplemented with 300 mg/L L-glutamine, 100 units/ml penicillin, 100 μg/ml streptomycin and 10% fetal bovine serum. All the cell lines were incubated in a humidified incubator at 37° C. with 5% CO2 atmosphere.
# (§2) Cells were plated at a density of 2000 to 10000 cells per well, depending on their growth rate, in 0.09 mL medium on day 0 in 96-well Microlite TCT microtiter plates (7418, Thermo Labsystems, Franklin, Mass.). On day 1, 10 μL of serial dilutions of the individual compounds were added to the plates in replicates of 3. After incubation for 4 days at 37° C. in a humidified incubator, the cells were lysed in the Cell-Titer-Glo reagent, which also contains luciferase enzyme. The luciferase reaction utilizes ATP released from lysed cells to produce light, the intensity of which is linearly related to the amount of ATP. Thus, the amount of light produced is a reflection of the number of cells remaining in the well after drug treatment. This luminescence was measured using a Luminoskan luminometer (Thermo Electron Corp., Vantaa, Finland) Data were expressed as the percentage of survival of control cells calculated from the luminescence corrected for background. The surviving percent of cells was determined by dividing the mean luminescence values of the treated wells by the mean luminescence values of the control and multiplying by 100.
# as §1, with “To evaluate cell killing of cancer cell lines, an in vitro cytotoxicity assay was performed. The” for “Briefly,”, “carcinoma),” for “carcinoma) and TT (medullary thyroid),”, “(prostate),” for “(prostate)”
# as §2, with “(#7418,” for “(7418,”, “100. […]” for “100.”
# A549 (lung) = assay: in vitro cytotoxicity assay (Cell-Titer-Glo), A549; settings: Homo sapiens
# Method: as §1, §2
# as §1, with “To evaluate cell killing of cancer cell lines, an in vitro cytotoxicity assay was performed. The” for “Briefly,”, “carcinoma),” for “carcinoma) and TT (medullary thyroid),”, “(prostate),” for “(prostate)”
# as §2, with “(#7418,” for “(7418,”, “100. […]” for “100.”
# Panc-1 (pancreas) = assay: in vitro cytotoxicity assay (Cell-Titer-Glo), Panc-1; settings: Homo sapiens
# Method: as §1, with “To evaluate cell killing of cancer cell lines, an in vitro cytotoxicity assay was performed. The” for “Briefly,”, “thyroid).” for “thyroid), PC-3 (prostate) and A549 (lung).”
# as §2, §1
# as §1, with “To evaluate cell killing of cancer cell lines, an in vitro cytotoxicity assay was performed. The” for “Briefly,”, “carcinoma),” for “carcinoma) and TT (medullary thyroid),”, “(prostate),” for “(prostate)”
# (§3) Cells were plated at a density of 2000 to 10000 cells per well, depending on their growth rate, in 0.09 mL medium on day 0 in 96-well Microlite TCT microtiter plates (#7418, Thermo Labsystems, Franklin, Mass.). On day 1, 10 μL of serial dilutions of the individual compounds were added to the plates in replicates of 3. After incubation for 4 days at 37° C. in a humidified incubator, the cells were lysed in the Cell-Titer-Glo reagent, which also contains luciferase enzyme. […]
# HT-29 (colon) = assay: in vitro cytotoxicity assay (Cell-Titer-Glo), HT-29; settings: Homo sapiens
# Method: as §1, with “To evaluate cell killing of cancer cell lines, an in vitro cytotoxicity assay was performed. The” for “Briefly,”, “thyroid).” for “thyroid), PC-3 (prostate) and A549 (lung).”
# as §2, §1
# as §1, with “To evaluate cell killing of cancer cell lines, an in vitro cytotoxicity assay was performed. The” for “Briefly,”, “carcinoma),” for “carcinoma) and TT (medullary thyroid),”, “(prostate),” for “(prostate)”
# as §3
# [1] = system: HepG2 (hepatocellular carcinoma); assay: in vitro cytotoxicity assay (Cell-Titer-Glo), HepG2; settings: Homo sapiens, HepG2, 96 h, 4 days
# Method: as §1, with “To evaluate cell killing of cancer cell lines, an in vitro cytotoxicity assay was performed. The” for “Briefly,”, “thyroid).” for “thyroid), PC-3 (prostate) and A549 (lung).”
# as §2, §1
# as §1, with “To evaluate cell killing of cancer cell lines, an in vitro cytotoxicity assay was performed. The” for “Briefly,”, “carcinoma),” for “carcinoma) and TT (medullary thyroid),”, “(prostate),” for “(prostate)”
# as §3
# OVCAR-3 (ovary) = assay: in vitro cytotoxicity assay (Cell-Titer-Glo), OVCAR-3; settings: Homo sapiens
# Method: as §1, with “To evaluate cell killing of cancer cell lines, an in vitro cytotoxicity assay was performed. The” for “Briefly,”, “thyroid).” for “thyroid), PC-3 (prostate) and A549 (lung).”
# as §2, §1
# as §1, with “To evaluate cell killing of cancer cell lines, an in vitro cytotoxicity assay was performed. The” for “Briefly,”, “carcinoma),” for “carcinoma) and TT (medullary thyroid),”, “(prostate),” for “(prostate)”
# as §3
# MiaPaCa-2 (pancreas) = assay: in vitro cytotoxicity assay (Cell-Titer-Glo), MiaPaCa-2; settings: Homo sapiens, MIA PaCa-2, 96 h, 4 days
# Method: as §1, with “To evaluate cell killing of cancer cell lines, an in vitro cytotoxicity assay was performed. The” for “Briefly,”, “thyroid).” for “thyroid), PC-3 (prostate) and A549 (lung).”
# as §2, §1
# as §1, with “To evaluate cell killing of cancer cell lines, an in vitro cytotoxicity assay was performed. The” for “Briefly,”, “carcinoma),” for “carcinoma) and TT (medullary thyroid),”, “(prostate),” for “(prostate)”
# as §3
# U2-OS (osteosarcoma) = assay: in vitro cytotoxicity assay (Cell-Titer-Glo), U2-OS; settings: Homo sapiens, U2OS
# Method: as §1, with “To evaluate cell killing of cancer cell lines, an in vitro cytotoxicity assay was performed. The” for “Briefly,”, “thyroid).” for “thyroid), PC-3 (prostate) and A549 (lung).”
# as §2, §1
# as §1, with “To evaluate cell killing of cancer cell lines, an in vitro cytotoxicity assay was performed. The” for “Briefly,”, “carcinoma),” for “carcinoma) and TT (medullary thyroid),”, “(prostate),” for “(prostate)”
# as §3
# [2] = 96 h, Example 20, 4 days, read-out: Cell-based IC50 values PC-3
# [3] = A549, 96 h, Example 20, 4 days, read-out: Cell-based IC50 values A549
# [4] = PANC-1, 96 h, Example 20, 4 days, read-out: Cell-based IC50 values Panc-1
# [5] = HT-29, 96 h, Example 20, 4 days, read-out: Cell-based IC50 values HT-29
# [6] = Example 20, read-out: Cell-based IC50 values HepG2
# [7] = OVCAR-3, 96 h, Example 20, 4 days, read-out: Cell-based IC50 values OVCAR-3
# [8] = Example 20, read-out: Cell-based IC50 values MiaPaCa-2
# [9] = 96 h, Example 20, 4 days, read-out: Cell-based IC50 values U2-Os
Compound,IC50 (PC-3 (prostate); [2]) [µM],"IC50 (PC-3 (prostate); Table 10, 96 hours, read-out: IC50 PC-3 (inhibit cell growth to 50% of untreated)) [µM]",IC50 (A549 (lung); [3]) [µM],"IC50 (A549 (lung); A549, Table 10, 96 hours, read-out: IC50 A549 (inhibit cell growth to 50% of untreated)) [µM]","IC50 (Panc-1 (pancreas); PANC-1, 96 h, Example 18, 4 days, read-out: calculated IC50 Panc-1) [µM]",IC50 (Panc-1 (pancreas); [4]) [µM],"IC50 (Panc-1 (pancreas); PANC-1, Table 10, 96 hours, read-out: IC50 Panc1 (inhibit cell growth to 50% of untreated)) [µM]","IC50 (HT-29 (colon); HT-29, 96 h, Example 18, 4 days, read-out: calculated IC50 HT-29) [µM]",IC50 (HT-29 (colon); [5]) [µM],"IC50 (HT-29 (colon); HT-29, Table 10, 96 hours, read-out: IC50 HT-29 (inhibit cell growth to 50% of untreated)) [µM]","IC50 ([1]; Example 18, read-out: calculated IC50 HepG2) [µM]","IC50 [1, 6] [µM]","IC50 (OVCAR-3 (ovary); OVCAR-3, 96 h, Example 18, 4 days, read-out: calculated IC50 OVCAR-3) [µM]",IC50 (OVCAR-3 (ovary); [7]) [µM],"IC50 (OVCAR-3 (ovary); OVCAR-3, Table 10, 96 hours, read-out: IC50 OVCAR-3 (inhibit cell growth to 50% of untreated)) [µM]","IC50 (MiaPaCa-2 (pancreas); Example 18, read-out: calculated IC50 MiaPaCa-2) [µM]",IC50 (MiaPaCa-2 (pancreas); [8]) [µM],"IC50 (U2-OS (osteosarcoma); 96 h, Example 18, 4 days, read-out: calculated IC50 U2-OS) [µM]",IC50 (U2-OS (osteosarcoma); [9]) [µM],"IC50 (U2-OS (osteosarcoma); Table 10, 96 hours, read-out: IC50 U2-Os (inhibit cell growth to 50% of untreated)) [µM]"
"CC(=O)NS(=O)(=O)c1ccc(NC(=S)N2CCN(c3ncnc4[nH]c5cc(C(F)(F)F)c(Cl)cc5c34)CC2)cc1 [Compound 1-1, 4-(6-Chloro-7-trifluoromethyl-9H-pyrimido[4,5-b]indol-4-yl)-piperazine-1-carbothioic acid (4-acetylsulfamoyl-phenyl)-amide]",52.3,28.4,53.8,19,40.7,37.5,40.7,14.7,5.01,14.7,7.83,26,25,13.1,25,66.6,18.6,25.9,13.2,25.9
"COc1cc2[nH]c3ncnc(N4CCN(C(=S)Nc5ccc(S(=O)(=O)NC(C)=O)cc5)CC4)c3c2cc1OC [Compound 1-2, 4-(6,7-Dimethoxy-9H-pyrimido[4,5-b]indol-4-yl)-piperazine-1-carbothioic acid (4-acetylsulfamoyl-phenyl)-amide]",164,–,194,–,–,198,–,–,93.6,–,–,295,–,29.4,–,–,173,–,71.7,–
"CC(=O)NS(=O)(=O)c1ccc(NC(=S)N2CCN(c3ncnc4[nH]c5ccc(Cl)cc5c34)CC2)cc1 [Compound 1-3, 4-(6-chloro-9H-pyrimido[4,5-b]indol-4-yl)-piperazine-1-carbothioic acid (4-acetylsulfamoyl-phenyl)-amide]",47.3,–,37,–,–,35.8,–,–,29.8,–,–,49.6,–,48,–,–,22.1,–,20.8,–
CC(=O)NS(=O)(=O)c1ccc(NC(=S)N2CCN(c3ncnc4[nH]c5cc(F)ccc5c34)CC2)cc1 [Compound 1-4],160,–,72.7,–,–,136,–,–,103,–,–,88,–,79,–,–,85.2,–,36.3,–
COc1cc2c(cc1O)[nH]c1ncnc(N3CCN(C(=S)Nc4ccc(S(=O)(=O)NC(C)=O)cc4)CC3)c12 [Compound 1-8],–,–,–,–,–,–,–,–,27.3,–,–,81.8,–,82.4,–,–,–,–,–,–
COc1cc2[nH]c3ncnc(N4CCN(C(=S)Nc5ccc(S(=O)(=O)N6CCOCC6)cc5)CC4)c3c2cc1OC [Compound 1-26],22.3,–,130,–,–,139,–,–,176,–,–,4.38,–,156,–,–,8.92,–,6.95,–
COc1cc2[nH]c3ncnc(N4CCN(C(=S)Nc5ccc(NC(=O)C6CC6)cc5)CC4)c3c2cc1OC [Compound 1-34],21.9,–,186,–,–,125,–,–,138,–,–,81.9,–,111,–,–,9.82,–,27,–
COc1cc2[nH]c3ncnc(N4CCN(C(=S)Nc5ccc(NC(C)=O)cc5)CC4)c3c2cc1OC [Compound 1-42],189,–,160,–,–,216,–,–,140,–,–,98.5,–,85.1,–,–,182,–,41.3,–
COc1cc2[nH]c3ncnc(N4CCN(C(=S)Nc5ccc(S(N)(=O)=O)cc5)CC4)c3c2cc1OC [Compound 1-107],2.33,–,51.5,–,–,300,–,–,> 300,–,–,173,–,176,–,–,107,–,8.7,–
